Series [1] deals with human breast and lung cancer cell line-derived in vivo models. The following applies: in vitro and in vivo; cited from earlier work.
Series [2] has as its system murine renal cell carcinoma model RENCA. As to conditions: cited from earlier work.
For another series, the system named is THP-1. Briefly: Cell proliferation assay, Cell Titer Glo (CTG) method, THP-1. Format: cell-based, human. As to conditions: Table 2; 72 h. As to the method: (§1) Cell Proliferation Assay for Nampt-ADCs and Nampt-SMOLs
(§2) Cell Titer Glo (CTG) Method
(§3) To this end, 75 μL per well CTG solution (Promega, catalog #G755B and G756B) was added to cells in sister plates, incubated for 10 min, and luminescence was measured on a VICTOR V instrument (Perkin Elmer). After incubation for either 72 or 96 hrs (Table 1) in the presence of test compounds, 100 μl per well CTG solution was added to all test wells, incubated for 10 min and luminescence was measured on a VICTOR V instrument. […] The DRC software is a Biobook Spreadsheet that was developed by Bayer AG and Bayer Business Services on the IDBS E-Workbook Suite platform (IDBS: ID Business Solutions Ltd., Guildford, UK).
On the technique in general: ATP-based viability assays read luminescence as a measure of living cells.

A further series has as its system U251 MG. Briefly: Cell proliferation assay, Cell Titer Glo (CTG) method, U251 MG. In kind it is cell-based. The following applies: Table 2; 72 h. As for the experimental part: as §1, §2, §3
The subject of a further series is A549 C4.4a B4. Put plainly: Cell proliferation assay, Cell Titer Glo (CTG) method, A549 C4.4a B4. Format: cell-based, human. As to conditions: Table 2; 72 h; read-out: A549 C4.4a B4 72 h IC50. As for the experimental part: as §1, §2, §3
The next series deals with T1, human NAMPT (Homo sapiens, UniProt P43490).
T1 construct: N-terminally His6-tagged recombinant full length human NAMPT; His6 (N); made in house; host or cells: E. coli
Put plainly: NAMPT biochemical assay (hNAMPT IC50), cascade assay with NMNAT1 and NAD/NADH-Glo detection. The following applies: Table 2; replicate values on separate lines. The text has this: NAMPT Biochemical Assay (hNAMPT IC50)
Nicotinamide phosphoribosyltransferase (NAMPT) inhibitory activity of compounds of the present invention was quantified employing a cascade assay as described in the following paragraphs. The assay couples the conversion of nicotinamide (NAM) to nicotinamide mononucleotide (NMN) by NAMPT with the conversion of NMN to […] adenine dinucleotide (NAD^+) by nicotinamide mononucleotide adenylyltransferase 1 (NMNAT1) and the subsequent quantification of the generated NAD^+ by a commercial detection kit (NAD/NADH-Glo™ Assay from Promega, #G9072).
N-terminally His6-tagged recombinant full length human NAMPT and N-terminally His6-tagged recombinant full length human NMNAT1, both expressed in E. coli and purified via Ni-NTA-affinity chromatography and consecutive size exclusion chromatography, were used as enzymes.
For the assay 50 nl of a 100 fold concentrated solution of the test compound in DMSO was pipetted into a white low volume 384 well microtiter plate (Greiner Bio-One, Frickenhausen, Germany), 2.5 μl of a solution of NAMPT in aqueous NMNAT1-containing assay buffer [50 mM Tris/HCl pH 7.5, 12 mM MgCl2, 0.6 mM adenosine-tri-phosphate (ATP), 1 nM NMNAT1, 0.02% (w/v) bovine serum albumin (Sigma-Aldrich #P7906), 0.001% (v/v) Tween-20 (Sigma-Aldrich #P7949)] were added and the mixture was incubated for 15 min at 22° C. to allow pre-binding of the test compounds to the enzyme before the start of the enzyme reaction. Then the reaction was started by the addition of 2.5 μl of a solution of NAM (300 nM=>final conc. in the 5 μl assay volume is 150 nM, Sigma-Aldrich #^47865) and 5-phosphorylribose-1-pyrophosphate pentasodium salt (PRPP, 1.2 μM=>final conc. in the 5 μl assay volume is 0.6 μM, Sigma-Aldrich P8296) in assay buffer and the resulting mixture was incubated for a reaction time of 20 min at 22° C. The concentration of NAMPT was adjusted depending of the activity of the enzyme lot and was chosen appropriate to have the assay in the linear range, typical final concentration in the 5 μl assay volume was 0.16 nM.
The resulting mixture was incubated 2 h at 22° C. to allow a steady-state of the detection system. Subsequently the generated luminescence was measured in a suitable luminescence reader, e.g. a Viewlux™ (Perkin-Elmer), and taken as a measure for the generated NAD^+.

In another series the test system is MDA-MB-453. Briefly: Cell proliferation assay, Cell Titer Glo (CTG) method, MDA-MB-453. In kind it is cell-based. As to conditions: Table 2; 72 h; read-out: MDA-MB-453 72 h IC50. As to the method:
as §1, §2, §3

“And” between values parts separate entries of the source, which are not always exact repeats. Equal values may be shown once.

T1 sequence (P43490 whole entry): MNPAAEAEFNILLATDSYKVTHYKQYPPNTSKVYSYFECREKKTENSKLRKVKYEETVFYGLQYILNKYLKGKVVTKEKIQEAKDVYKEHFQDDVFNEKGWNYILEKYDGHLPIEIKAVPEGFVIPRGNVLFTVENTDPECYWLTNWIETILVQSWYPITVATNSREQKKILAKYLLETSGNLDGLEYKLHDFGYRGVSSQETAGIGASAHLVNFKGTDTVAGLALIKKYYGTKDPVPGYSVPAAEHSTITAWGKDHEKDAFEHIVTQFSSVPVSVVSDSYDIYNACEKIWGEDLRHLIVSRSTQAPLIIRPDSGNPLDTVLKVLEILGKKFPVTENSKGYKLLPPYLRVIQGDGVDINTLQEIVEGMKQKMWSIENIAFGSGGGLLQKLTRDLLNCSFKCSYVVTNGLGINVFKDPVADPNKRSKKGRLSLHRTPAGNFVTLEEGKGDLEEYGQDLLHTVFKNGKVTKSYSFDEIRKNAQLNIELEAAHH

Regarding `N#CN=C(NCCCCCCOc1ccc(Cl)cc1)Nc1ccncc1` [CHS-828, N-[6-(4-chlorophenoxy)hexyl]-N′-cyano-N″-4-pyridinyl-guanidine], in series [1], the cytotoxic effects entry is listed as “highly cytotoxic effects”.

For `O=C(/C=C/c1cccnc1)NCCCCC1CCN(C(=O)c2ccccc2)CC1` [daporinad, (E)-N-[4-(I-benzoylpiperidin-4-yl)butyl]-3-(pyridine-3-yl)-acrylamide], in series [2], the In vivo efficacy entry is given as “In vivo efficacy of daporinad was shown”.

As usually defined, the IC50 is the concentration that gives 50% inhibition. For “2 or 3-{[(2R)-2-Amino-2-carboxyethyl]sulfanyl}-4-{[2-({6-[3-{4-[(1,3-dihydro-2H-pyrrolo[3,4-c]pyridine-2-carbonyl)amino]phenyl}-5-(5-methyl-1,3,4-oxadiazol-2-yl)-6-oxopyridazin-1(6H)-yl]hexyl}amino)-2-oxoethyl]amino}-4-oxobutanoic Acid [Example 34M]”, the IC50 in the series with THP-1 was greater than 300 nM; in the series on U251 MG it was greater than 300 nM; with A549 C4.4a B4, greater than 300 nM; against human NAMPT, 1.17 nM and 1.18 nM; in the series with MDA-MB-453, 91.2 nM.
